According to paper PMC4809498, “Artonin E Induces Apoptosis via Mitochondrial Dysregulation in SKOV-3 Ovarian Cancer Cells” (PLoS ONE, 2016):
Converted amounts (≈) assume the structure as drawn.

Columns and labels:
caspase-3 = assay: Colorimetric caspase-3 activation assay; assay type: cell-based, human; details: SKOV-3, 8 μg/mL, 48 and 72 h treatment
Protocol: (§1) Calorimetric assay of the activation of caspases-3, -8, and -9 was conducted using R & D system kit, USA. Briefly, in a T75cm^2 flask 90% confluent SKOV-3 cells were induced with artonin E for 24, 48, and 72 h. The induced cells were trypsinized and centrifuged at 1,800 rpm for 10 min. The fresh pellets were washed with cold PBS and immediately lysed with protein lysis buffer. The cell lysate was then kept on ice for 10 min, centrifuged at 10,000 g for 15 min, and transferred into a new tube. The fresh cell lysate (50 μL), which contained 100–200 μg of protein, was added into a 96-well plate in triplicate. Fifty microliters of reaction buffer and 5 μL of caspase were then transferred into each designated well before incubating the plate in a CO2 incubator at 37°C for 2 h. A microplate reader (Tecan Infinite M 200 PRO, Männedorf, Switzerland) was used for analysis at a wavelength of 405 nm.

SKOV-3 cells [1] = assay: Multiparametric Cytotoxicity 3 high-content screening; assay type: cell-based, human; details: SKOV-3, 8 μg/mL
Protocol: Cellomics Multiparameter Cytotoxicity 3 kit (Thermo Scientific^TM, Pittsburgh, PA, USA) was used to perform simultaneous detection of the crucial apoptotic events in SKOV-3 cells treated with artonin E. Briefly, SKOV-3 cells were seeded at a density of 5000 cells/well in a black flat-bottomed 96-well plates (PerkinElmer, Inc., Wellsley, MA, USA) and left overnight to attach. The attached cells were treated with 8 μg/mL artonin E for 24, 48, and 72 h. The treated cells were then exposed to 50 μL of live cell staining solution for 30 min. The excess medium and live cell staining solution were gently removed and the cells were then fixed with 16% paraformaldehyde. After fixation, the cells were exposed with permeabilization buffer followed by blocking buffer for 15 min at room temperature. Primary Cytochrome C antibodies and secondary DyLight 649 conjugated goat antimouse IgG were added and allowed to interact for 1 h each. Hoechst 33342 dye was used to stain nuclei in SKOV-3 cells. Stained SKOV-3 cells in the 96-well plates were analyzed using ArrayScan high-content screening (HCS) system. All experiments were conducted in triplicates and experiments were repeated twice.

T1074 cells = assay: MTT cell viability assay, T1074; assay type: cell-based, human; details: Homo sapiens
Protocol: (§2) Metastatic ovarian adenocarcinoma (SKOV-3) and normal Chinese hamster ovary (CHO) cell lines were originally obtained from the American Type Culture Collection (ATCC; Manassas, VA). SKOV-3 cells were cultured in McCoy’s 5A medium and CHO cells were cultured in F12K medium. A human periodontal ligament fibroblast cell line was purchased from Lonza, USA and maintained in stroma cell basal medium. T1074 (normal immortalized human ovarian surface epithelial cell line) was originally purchased from Applied Biological Materials (abm®) Canada and cultured in Prigrow 1 medium.
(§3) The inhibitory effects of artonin E and two positive controls paclitaxel and carboplatin were examined by MTT assay. Cells at a density of 5×10^3cells/well were placed in a 96-well plate and left for 24 h to attach. The attached cells were exposed to artonin E, paclitaxel, and carboplatin at different concentrations and incubated for 24, 48, and 72 h. Subsequently, 20 μL of 5 mg/mL MTT solution was added after drug treatment and the resulting mixture was incubated for 4 h to form purple formazan. Afterward, 100 μL of dimethyl sulfoxide (DMSO) was transferred into each well to dissolve the purple formazan, and results were measured using a microplate reader (Tecan Infinite M 200 PRO, Männedorf, Switzerland) at an absorbance of 570 nm. The half-maximal concentrations that caused cell growth inhibition (IC50 values) were obtained from the MTT viability growth curve.

caspase-8 = assay: Colorimetric caspase-8 activation assay; assay type: cell-based, human; details: SKOV-3, 8 μg/mL, 48 and 72 h treatment
Protocol: as §1

[2] = biological target: arachidonate 5-lipoxygenase; parameters: method as in PMID 14559276; details: read-out: IC50 value, arachidonate 5-lipoxygenase inhibition; cited from earlier work
SKOV-3 cells [3] = assay: MTT cell viability assay, SKOV-3; assay type: cell-based, human; details: SKOV-3, MTT; for IC50: Homo sapiens
Protocol: as §2, §3

SKOV-3 cells [4] = assay: DNA fragmentation (laddering) assay; assay type: cell-based, human; details: SKOV-3, 8 μg/mL, 24, 48, 72 h, 1.5% agarose gel
Protocol: SKOV-3 cells were treated with artonin E at different time points, and harvested by adding trypsin to promote detachment. The detached cells were spun down and washed two times with cold PBS. The DNA from cells in the suspension was extracted using the suicide Track^TM DNA ladder isolation kit (Calbiochem, EMD Bioscience, Germany). The cells were then lysed by mixing 55 μL of TE (Tris and EDTA) lysis buffer and 20 μL of enzyme A (RNase A). The resulting mixture was incubated at 37°C for 1 h. Subsequently, 25 μL of enzyme B (proteinase K) was added and the lysate was kept in a water bath at 50°C overnight. Following incubation, 2 μL of Pellet Paint, 60 μL of 3M sodium acetate, and 662 μL of 2-propanol were added to the lysate, and the solution was briefly mixed by inversion and incubated at room temperature for 2 min. The DNA was then precipitated by centrifugation of the samples at 16,000×g for 5 min. The supernatant was removed and the fresh pellets were rinsed two times with 70% and 100% ice-cold ethanol. The pellets were air dried at room temperature for a few minutes to discard the ethanol and resuspended with 50 μL of DNA resuspension buffer. The prepared DNA ladder samples were loaded onto a 1.5% gel electrophoresis set up and run at 50 constant volts for 3 h. […]

H460 cells = system: H460 cells; parameters: method as in PMID 23225436; details: dose-dependent manner; cited from earlier work
SKOV-3 cells [5] = assay: AO-PI double staining; assay type: cell-based, human; details: SKOV-3, 8 μg/mL, 24, 48, 72 h
Protocol: The effect of artonin E in inducing cell death in SKOV-3 cells was determined using acridine orange (AO) and propidium iodide (PI) double staining. SKOV-3 cells were plated at 5×10^5cells in a T75cm^2 flask and incubated overnight to allow attachment. The cells were then exposed to 8 μg/mL of artonin E for 24, 48, and 72 h. After incubation, the treated cells were washed with PBS, and then trypsinized and centrifuged at 1,500 rpm for 5 min. The cells were then resuspended in cold PBS and centrifuged twice to obtain fresh clean pellets. The fresh pellets were mixed with an equal volume of fluorescent dye staining solution (1:1), comprising 10μg/mL AO and 10 μg/mL PI (dissolved in PBS). The freshly stained cell suspension was dropped onto a glass slide and observed under a UV–fluorescence microscope (Leica attached with Q-Flora Software) within 30 min, prior to fading of the fluorescence.

activation of caspase-3 (caspase-3): significantly (p<0.05)elevated
activation of caspase-8 (caspase-8): significantly (p<0.05)elevated
IC50 (SKOV-3 cells [3]; SK-OV-3, 24 h, 24 h treatment): 12.8 ± 0.28 µg/mL (≈ 29.4 µM)
IC50 (SKOV-3 cells [3]; SK-OV-3, 48 h, 48 h treatment): 8 µg/mL (≈ 18.3 µM)
IC50 (SKOV-3 cells [3]; SK-OV-3, 72 h, 72 h treatment): 6.5 ± 0.5 µg/mL (≈ 14.9 µM)
IC50 values (SKOV-3 cells [3]; 48 h treatment): 8.8 ± 0.29 µg/mL (≈ 20.2 µM)
SMILES: CC(C)=CCc1c(-c2cc(O)c(O)cc2O)oc2c3c(cc(O)c2c1=O)OC(C)(C)C=C3 [Artonin E, artonin E]
cytochrome c fluorescence intensities (SKOV-3 cells [1]; prolonged treatment periods): increase
cell permeability (SKOV-3 cells [1]; time-dependent (24, 48, 72 h)): marked increased
green fluorescence intensity of MMP (SKOV-3 cells [1]; time-dependent (24, 48, 72 h)): significant (p<0.05) reduction
IC50 (T1074 cells; 24 h treatment): 44.8 ± 0.76 µg/mL (≈ 103 µM)
IC50 (T1074 cells; 48 h treatment): 37.5 ± 0.53 µg/mL (≈ 85.9 µM)
IC50 (T1074 cells; 72 h treatment): 32.5 ± 0.5 µg/mL (≈ 74.5 µM)
IC50 [2]: 360 nM
DNA fragmentation (ladder pattern) (SKOV-3 cells [4]): distinctly observed
anoikis (detachment-induced apoptosis) of H460 cells (H460 cells): enhances anoikis
induction of apoptosis (AO-PI scoring) vs untreated cells (SKOV-3 cells [5]): statistically significant (p<0.05) difference
